Measurements: ChEMBL document CHEMBL1201862, “PubChem BioAssay data set” (2004)
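Results reflect a 48-hour exposure of cells in 96-well plates to compound at five concentrations. GI50 = concentration required for 50% inhibition of growth.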 Calls of active or inactive are those of the source. Cut-off read from the data, not from the text of the source: active = GI50 up to about 1.1 µM and inactive = higher.

Key:
Assay in all cases: DTP human tumour cell line panel, 48 h
DU-145 = test system: DU-145
Hs-578T = test system: Hs-578T
MDA-MB-435 = test system: MDA-MB-435
MDA-N = test system: MDA-N
PC-3 = test system: PC-3
T47D = test system: T47D
786-0 = test system: 786-0
BT-549 = test system: BT-549
MDA-MB-231 = test system: MDA-MB-231

SMILES	GI50 (DU-145)	GI50 (Hs-578T)	GI50 (MDA-MB-435)	GI50 (MDA-N)	GI50 (PC-3)	GI50 (T47D)	GI50 (786-0)	GI50 (BT-549)	GI50 (MDA-MB-231)
O=C1Sc2ccccc2/C1=N/Nc1ccccc1[N+](=O)[O-]	> 100 µM (inactive)	36.1 µM (inactive)	> 100 µM (inactive)	57 µM (inactive)	> 100 µM (inactive)	10.2 µM (inactive)			
CC1(C)O[C@@H](C[C@]2(C#N)C[C@H](CCl)OC(C)(C)O2)C[C@@H](C#N)O1							> 100 µM (inactive)		
COc1cc2c(cc1OC)-c1cc3ccccc3c[n+]1CC2	> 100 µM (inactive)	23.8 µM (inactive)	> 100 µM (inactive)	> 100 µM (inactive)	> 100 µM (inactive)	42.6 µM (inactive)		54.7 µM (inactive)	> 100 µM (inactive)
O=C1CNc2cc(N3CCCCC3)ccc2N1	> 100 µM (inactive)	4.43 µM (inactive)	60.4 µM (inactive)	75.2 µM (inactive)	> 100 µM (inactive)	> 100 µM (inactive)		> 100 µM (inactive)	
C=C1C[C@@H]2C[C@@H](C)CC(O)[C@]2(CCCN)C1O (stereo partly drawn)							> 100 µM (inactive)		
CCCCCCCCCCCCCCCCCc1cc(Cl)nc(Cl)n1		> 100 µM (inactive)	> 100 µM (inactive)		> 100 µM (inactive)		> 100 µM (inactive)	> 100 µM (inactive)	
CNC1=C(C)C(=O)C2=C(C1=O)C(COC(N)=O)C1(OC)C3NC3CN21 (stereo not drawn)		2.49 µM (inactive)	1.6 µM (inactive)	0.574 µM (active)	2.94 µM (inactive)	1.5 µM (inactive)			
